Measured values from US7910621B2, “Small molecule antagonists of XIAP family proteins” (The Regents of the University of Michigan, priority 2004, dated 2011).

Columns and labels:
[1] = tested on: PC-3 prostate cancer cells; test: WST-1 cell growth inhibition assay, PC-3; type: cell-based; details: Homo sapiens, 120 h; PC-3, WST-1, five days
Experimental: FIG. 5 presents inhibition of cell growth by embelin in prostate cancer cells (PC-3 and LnCap) and its selectivity in normal human prostate epithelial cells (PrEC) and normal human fibroblast cell line, WI-38. 5000 cells per well in a 96-well cell culture plate were treated with various concentrations of embelin in triplicate. Five days later, the cell growth was measured by the WST-1 cell growth assay kit […] The cell growth results are expressed as the percent of control and calculated from the percent of absorbance of treated wells versus that of vehicle control.
Human prostate cancer cell lines (PC-3, LNCap, CL-1, DU-145), and normal human fibroblast cell line WI-38 were obtained from the American Type Culture Collection (ATCC), were grown and maintained in Dulbecco's modified Eagle's medium (DMEM) containing 10% FBS (Invitrogen Corporation). Normal human prostate epithelial cells (PrEC) were obtained from Clonetics (Cambrex Inc., MD) and maintained in the special medium provided by the company. […]
Cell growth was determined by the MTT-based assay using Cell Proliferation Reagent WST-1 (Roche) according to the manufacturer's instruction. […] Absorbance was measured with a plate reader at […] with correction at […]. The results are expressed as the percent of absorbance of treated wells versus that of vehicle control.

Jurkat-XIAP cells [2] = test: Cell growth assay, Jurkat-XIAP; type: cell-based; details: essentially identical to that in Jurkat-Vec cells
Experimental: FIG. 9 presents inhibition of cell growth by embelin in Jurkat-Vec and Jurkat-XIAP cells. The cell growth results are expressed as the percent of control and calculated from the percent of absorbance of treated wells versus that of vehicle control.
Human prostate cancer cell lines (PC-3, LNCap, CL-1, DU-145), and normal human fibroblast cell line WI-38 were obtained from the American Type Culture Collection (ATCC), were grown and maintained in Dulbecco's modified Eagle's medium (DMEM) containing 10% FBS (Invitrogen Corporation). Normal human prostate epithelial cells (PrEC) were obtained from Clonetics (Cambrex Inc., MD) and maintained in the special medium provided by the company. Jurkat T-cells stably transfected with either empty vector (Jurkat-Vec), or XIAP (Jurkat-XIAP) and were cultured in RPMI 1640 containing 10% fetal calf serum and 1 ug/ml puromycin. Cell cultures were maintained in a humidified incubator at 37° C. and 5% CO2.
Cell growth was determined by the MTT-based assay using Cell Proliferation Reagent WST-1 (Roche) according to the manufacturer's instruction. The WST-1 assay is a colorimetric assay that measures the reduction of WST-1 by mitochondrial succinate dehydrogenase, which belongs to the respiratory chain of the mitochondria and is active only in viable cells. The WST-1 enters the cells and passes into the mitochondria, where it is reduced to a soluble, colored formazan product. The amount of formazan dye formed directly correlates to the number of metabolically active cells in the culture. Cells (5000 cells/well) were grown in medium with 10% FBS, and various concentrations of drugs were added to the cells in triplicate. […] Absorbance was measured with a plate reader at […] with correction at […]. The results are expressed as the percent of absorbance of treated wells versus that of vehicle control.

caspase-9 in PC-3 cells = test: Activation of caspase-9 assay, PC-3; type: cell-based, human; details: for increase in activated caspase-9 as compared to vehicle treated control cells / PC-3 cells positively stained for activated caspase-9: 42 hrs; for PC-3 cells positively stained for activated caspase-9: vehicle control 3.1%
Experimental: FIGS. 7A and 7B show the activation of caspase-9 by embelin in PC-3 prostate cancer cells and its selectivity in normal prostate epithelial cells. 1×10^6 PC-3 or PrEC cells per well in 6-well culture plates were treated with embelin for 48 hours. […] The cells were collected and stained of active caspase-9 by CaspGLOW Red Active Caspase-9 Staining Kit, and analyzed by flow cytometry in PI channel.
1×10^6 PC-3 cells per well in 6-well culture plates, were treated with various concentrations of embelin, or the same amount of solvent DMSO as vehicle control, for up to 48 hr. […] The cells were collected for staining of active caspase-9 by CaspGLOW Red Active Caspase-9 Staining Kit (BioVision, Inc., Mountain View, Calif.) according to the manufacturer's instructions, with modification. Briefly, to each tube containing 1×10^6 treated or control cells in 0.3 ml complete culture medium was added 1 μl of Red-LEHD-FMK and incubated for 0.5 hr at 37° C. incubator with 5% CO2. For double staining with Annexin V-FITC, the cells were spun down and resuspended in 100 μl Binding Buffer containing 1× Annexin V-FITC from the Annexin-V-FLUOS Kit (Roche) and incubated at room temperature for 10 min. The cells were then washed two times with Wash Buffer from the Active Caspase-9 Staining Kit. The cells were resuspended in 0.3 ml Binding Buffer and analyzed by flow cytometry, using PI channel for active caspase-9 and FITC channel for apoptosis.
The active caspase-9 and Annexin V double stained cells were also observed under Zeiss Laser Scanning Confocal Microscope LSM 510 Meta, using the fluorescent filter sets for rhodamine (Red) and FITC (green) channels. Early apoptotic cells show green fluorescence on the cell membrane while caspase-9 positive cells show bright red staining in the cytoplasm. Photos were taken at original magnification of 630×.

[3] = target: XIAP BIR3 protein of human XIAP (residues 241-356) (Homo sapiens, UniProt P98170); details: read-out: IC50 (displacement of SM7F from XIAP BIR3); 10 nM SM7F, 0.060 μM XIAP BIR3; three independent experiments in triplicate
Chain of XIAP BIR3 protein of human XIAP (residues 241-356) (P98170 241-356): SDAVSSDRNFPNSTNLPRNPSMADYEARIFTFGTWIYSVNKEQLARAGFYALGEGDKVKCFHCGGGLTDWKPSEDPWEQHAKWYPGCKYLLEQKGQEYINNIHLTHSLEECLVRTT

Jurkat-XIAP cells [4] = test: Annexin V-FITC apoptosis assay, Jurkat-XIAP; type: cell-based; details: combination with etoposide, 15 hours
Experimental: FIGS. 8A and 8B present (A): Dose-dependent induction of apoptosis by etoposide in Jurkat cells transfected with vector control (Jurkat-Vec) and stably transfected with XIAP (Jurkat-XIAP cells); and (B): Induction of apoptosis by etoposide and embelin alone and in combination in Jurkat-Vec and Jurkat-XIAP cells. 1×10^6 Jurkat-XIAP or Jurkat-Vec cells per well in 6-well culture plates were treated with etoposide and embelin alone, or in combination for 15 hours, then stained with Annexin V-FITC and propidium iodide for apoptosis by flow cytometry. The results are shown as percent of Annexin V-FITC positive apoptotic cells.
PC-3 cells, 1×10^6 cells per well in 6-well culture plates, were treated in triplicate with various concentrations of embelin for 24 or 48 hours, then trypsinized and washed with PBS. For Jurkat cells, 1×10^6 Jurkat-XIAP or Jurkat-Vec cells per well in 6-well culture plates, were treated with etoposide, embelin, or both for 15 hours. For flow cytometry apoptosis assay, cells were stained with Annexin V-FITC and propidium iodide using the Annexin-V-FLUOS Kit (Roche) according to the manufacturer's instruction. The fluorescence of Annexin V-FITC and propidium iodide of individual cells was analyzed by FACScan. The results are shown as percent of Annexin V-FITC positive apoptotic cells.

IC50 [1]: 3.7 µM
IC50 [3]: 4.1 ± 1.1 µM
Structure (SMILES): CCCCCCCCCCCC1=C(O)C(=O)C=C(O)C1=O [embelin]
activity in cell growth assay (Jurkat-XIAP cells [2]): weak activity
increase in activated caspase-9 as compared to vehicle treated control cells (caspase-9 in PC-3 cells; 20 μM): 10 fold
PC-3 cells positively stained for activated caspase-9 (caspase-9 in PC-3 cells; 20 μM): 33.0%
increase in activated caspase-9 as compared to vehicle treated control cells (caspase-9 in PC-3 cells; 40 μM): 20 fold
PC-3 cells positively stained for activated caspase-9 (caspase-9 in PC-3 cells; 40 μM): 62.1%
activation of caspase-9 in PC-3 cells (caspase-9 in PC-3 cells; in words): effectively activates caspase-9 in a dose-dependant manner
percentage of apoptotic cells in combination, compared to either drug alone (Jurkat-XIAP cells [4]): significantly increased
